Reference: US7429605B2, “Phenylpyridine derivatives” (Hoffmann-La Roche Inc., priority 2005, dated 2008)

system: HEK293 cells; assay: Viability assay in HEK293 cells (CellTiter-Glo Luminescent Cell Viability Assay); type: cell-based; conditions: Homo sapiens, 7 days (168 h) incubation, compound 3 μM to 0.00015 μM, ATP luminescence
Procedure: Viability Assay in HEK293 Cells
A viability assay was performed using the CellTiter-Glo® Luminescent Cell Viability Assay (see Promega Corporation's Technical Bulletin No. 288, pp. 1-11 [revised 2/04] which is hereby incorporated by reference in its entirety). This assay is a homogeneous method of determining the number of viable cells in culture based on quantitation of the ATP present, an indicator of metabolically active cells. The assay is designed for use with multiwell formats, making it ideal for automated high-throughput screening (HTS), cell proliferation and cytotoxicity assays. The homogeneous assay procedure involves adding a single reagent (containing luciferase, luciferan substrate, and buffer) directly to cells cultured in serum-supplemented medium. Cell washing, removal of medium and multiple pipetting steps are not required. The system detects as few as 15 cells/well in a 384-well format in 10 minutes after adding reagent and mixing.
The homogeneous “add-mix-measure” format results in cell lysis and generation of a luminescent signal proportional to the amount of ATP present. The amount of ATP is directly proportional to the number of cells present in culture. The above-referenced assay generates a “glow-type” luminescent signal, produced by the luciferase reaction, which has a half-life generally greater than five hours, depending on cell type and medium used. The extended half-life eliminates the need to use reagent injectors and provides flexibility for continuous or batch mode processing of multiple plates. The unique homogeneous format avoids errors that may be introduced by other ATP measurement methods that require multiple steps.
HEK293 cells (human embryonic kidney cell line transformed by Adenovirus 5 fragments, ATCC-No. CRL 1573) were cultivated in Dulbecco's Modified Eagle Medium (DMEM) with Glutamax™ (cell culture media that contains L-Alanyl-L-Glutamine [a stabilized form/source of L-Glutamine] from Invitrogen, Cat-No. 31966-021), 5% Fetal Calf Serum (FCS, Sigma Cat-No. F4135 (FBS)), 100 Units/ml penicillin/100 μg/ml streptomycin (=Pen/Strep from Invitrogen Cat. No. 15140). For the assay the cells were seeded in 384 well plates, 5000 cells per well, in the same medium. The next day the test compounds were added in various concentrations ranging from 3 μM to 0.00015 μM (10 concentrations, 1:3 diluted). After 7 days the viability assay was done according to the instructions of the manufacturer. In brief: the cell-plate was equilibrated to room temperature for approximately 30 minutes and than the reagent (containing luciferase, luciferan substrate, and buffer) was added. The contents were carefully mixed for 15 minutes to induce cell lysis. After 45 minutes the luminescent signal was measured in Victor 2, (scanning multiwell spectrophotometer, Wallac).
Medium: Dulbecco's Modified Eagle Medium (DMEM) with Glutamax™ (Invitrogen, 31966-021), 5% Fetal Calf Serum (FCS, Sigma Cat-No. F4135 (FBS)), Pen/Strep (Invitrogen Cat. No. 15140).
Incubate 24 h at 37° C., 5% CO2
2. day Induction (Substance testing):
In general the dilution steeps are 1:3 a) Add 8 μl of 10 mM stock solution of compound to 72 μl DMSO b) dilute 9×1:3 (always 30 μl to 60 μl DMSO) in this DMSO dilution row (results in 10 wells with concentrations from 1000 μM to 0.06 μM) c) dilute each concentration 1:4.8 (10 μl compound dilution to 38 μd medium) d) dilute each concentration 1:10 (10 μl compound dilution to 90 μl medium) e) add 10 μl of every concentration to 60 μl medium in the cell plate resulting in final concentration of DMSO: 0.3% in every well and resulting in final concentration of compounds from 3 μM to 0.00015 μM Incubate 168 h (7 days) at 37° C., 5% CO2
Add 30 μl CellTiter-Glo™ Reagent (containing luciferase, luciferan substrate, and buffer)/well, shake 15 minutes at room temperature incubate further 45 minutes at room temperature without shaking.
Victor 2 scanning multiwell spectrophotometer (Wallac), Luminescence mode […]

Row | Compound | IC50
1 | FC(F)(F)c1ccc(-c2ccc(COc3ccc(CCCCn4ccnn4)cc3)cn2)cc1 [Example 3, 5-[4-(4-[1,2,3]triazol-1-yl-butyl)-phenoxymethyl]-[2-(4-trifluoromethyl-phenyl)]-pyridine] | 5 to 1000 nM
2 | Cc1cc(OCc2ccc(-c3ccc(OC(F)(F)F)cc3)nc2)ccc1CCCCn1ccnn1 [Example 4, 5-[3-Methyl-4-(4-[1,2,3]triazol-1-yl-butyl)-phenoxymethyl]-[2-(4-trifluoromethoxy-phenyl)]-pyridine] | 365 nM
3 | Cc1cc(OCc2ccc(-c3ccc(C(F)(F)F)cc3)nc2)ccc1CCCCn1ccnn1 [Example 5, 5-[3-Methyl-4-(4-[1,2,3]triazol-1-yl-butyl)-phenoxymethyl]-2-(4-trifluoromethyl-phenyl)-pyridine] | 89 nM
4 | Cc1cc(OCc2ccc(-c3ccc(C(F)(F)F)cc3)nc2C)ccc1CCCCn1ccnn1 [Example 6, 2-Methyl-3-[3-Methyl-4-(4-[1,2,3]triazol-1-yl-butyl)-phenoxymethyl]-6-(4-trifluoromethyl-phenyl)-pyridine] | 5 to 1000 nM
5 | Cc1nc(-c2ccc(C(F)(F)F)cc2)ccc1COc1ccc(CCCCn2ccnn2)cc1 [Example 7, 2-Methyl-3-[4-(4-[1,2,3]triazol-1-yl-butyl)-phenoxymethyl]-6-(4-trifluoromethyl-phenyl)-pyridine] | 5 to 1000 nM
6 | Cc1nc(-c2ccc(C(F)(F)F)cc2)ccc1COc1ccc(COCCn2ccnn2)cc1 [Example 8, 2-Methyl-3-[4-(2-[1,2,3]triazol-1-yl-ethoxymethyl)-phenoxymethyl]-6-(4-trifluoromethyl-phenyl)-pyridine] | 5 to 1000 nM
7 | Cc1nc(-c2ccc(C(F)(F)F)cc2)ccc1COc1ccc(C[S+]([O-])CCn2ccnn2)cc1 (stereo not drawn) [Example 9, 2-Methyl-3-[4-(2-[1,2,3]triazol-1-yl-ethanesulfinylmethyl)-phenoxymethyl]-6-(4-trifluoromethyl-phenyl)-pyridine] | 1000 to 5000 nM
8 | Cc1cc(OCc2ccc(-c3ccc(OC(F)(F)F)cc3)nc2C)ccc1CCCCn1ccnn1 [Example 11, 2-Methyl-3-[3-Methyl-4-(4-[1,2,3]triazol-1-yl-butyl)-phenoxymethyl]-6-(4-trifluoromethoxy-phenyl)-pyridine] | 5 to 1000 nM
9 | Cc1cc(OCc2ccc(-c3cccc(C(F)(F)F)c3)nc2C)ccc1CCCCn1ccnn1 [Example 13, 2-Methyl-3-[3-Methyl-4-(4-[1,2,3]triazol-1-yl-butyl)-phenoxymethyl]-6-(3-trifluoromethyl-phenyl)-pyridine] | 1000 to 5000 nM
10 | Cc1cc(OCc2ccc(-c3cccc(OC(F)(F)F)c3)nc2C)ccc1CCCCn1ccnn1 [Example 15, 2-Methyl-3-[3-Methyl-4-(4-[1,2,3]triazol-1-yl-butyl)-phenoxymethyl]-6-(3-trifluoromethoxy-phenyl)-pyridine] | 1000 to 5000 nM
11 | Cc1nc(-c2ccc(F)cc2)ccc1COc1ccc(CCCCn2ccnn2)cc1 [Example 16, 6-(4-Fluoro-phenyl)-2-methyl-3-[4-(4-[1,2,3]triazol-1-yl-butyl)-phenoxymethyl]-pyridine] | 5 to 1000 nM
12 | Cc1cc(OCc2ccc(-c3ccc(F)cc3)nc2C)ccc1CCCCn1ccnn1 [Example 17, 6-(4-Fluoro-phenyl)-2-methyl-3-[3-Methyl-4-(4-[1,2,3]triazol-1-yl-butyl)-phenoxymethyl]-pyridine] | 5 to 1000 nM
13 | FC(F)(F)c1ccc(-c2cccc(COc3ccc(CCCCn4ccnn4)cc3)n2)cc1 [Example 18, 2-[4-(4-[1,2,3]triazol-1-yl-butyl)-phenoxymethyl]-6-(4-trifluoromethyl-phenyl)-pyridine] | 1000 to 5000 nM
14 | Cc1cc(OCc2cccc(-c3ccc(C(F)(F)F)cc3)n2)ccc1CCCCn1ccnn1 [Example 19, 2-[3-Methyl-4-(4-[1,2,3]triazol-1-yl-butyl)-phenoxymethyl]-6-(4-trifluoromethyl-phenyl)-pyridine] | 5 to 1000 nM
15 | Cc1nc(-c2ccc(Cl)cc2)ccc1COc1ccc(CCCCn2ccnn2)cc1 [Example 20, 6-(4-Chloro-phenyl)-2-methyl-3-[4-(4-[1,2,3]triazol-1-yl-butyl)-phenoxymethyl]-pyridine] | 5 to 1000 nM
16 | Cc1cc(OCc2ccc(-c3ccc(Cl)cc3)nc2C)ccc1CCCCn1ccnn1 [Example 21, 6-(4-Chloro-phenyl)-2-methyl-3-[3-Methyl-4-(4-[1,2,3]triazol-1-yl-butyl)-phenoxymethyl]-pyridine] | 5 to 1000 nM
17 | Cc1nc(-c2ccc(C(F)(F)F)cc2)ccc1COc1ccc(CSCCn2ccnn2)cc1 [Example 22, 2-Methyl-3-[4-(2-[1,2,3]triazol-1-yl-ethylsulfanylmethyl)-phenoxymethyl]-6-(4-trifluoromethyl-phenyl)-pyridine] | 5 to 1000 nM
18 | Cc1nc(-c2ccc(F)cc2)ccc1COc1ccc(CSCCn2ccnn2)cc1 [Example 23, 6-(4-Fluoro-phenyl)-2-methyl-3-[4-(2-[1,2,3]triazol-1-yl-ethylsulfanylmethyl)-phenoxymethyl]-pyridine] | 1000 to 5000 nM
19 | Cc1cc(OCc2ccc(-c3cccc(C(F)(F)F)c3)nc2)ccc1CCCCn1ccnn1 [Example 26, 5-[3-Methyl-4-(4-[1,2,3]triazol-1-yl-butyl)-phenoxymethyl]-2-(3-trifluoromethyl-phenyl)-pyridine] | 1000 to 5000 nM
20 | Clc1ccc(-c2ccc(COc3ccc(CCCCn4ccnn4)cc3)cn2)cc1 [Example 27, 2-(4-Chloro-phenyl)-5-[4-(4-[1,2,3]triazol-1-yl-butyl)-phenoxymethyl]-pyridine] | 5 to 1000 nM
21 | Cc1cc(OCc2ccc(-c3ccc(Cl)cc3)nc2)ccc1CCCCn1ccnn1 [Example 28, 2-(4-Chloro-phenyl)-5-[3-methyl-4-(4-[1,2,3]triazol-1-yl-butyl)-phenoxymethyl]-pyridine] | 1000 to 5000 nM
22 | Cc1cc(OCc2cccc(-c3ccc(OC(F)(F)F)cc3)n2)ccc1CCCCn1ccnn1 [Example 30, 2-[3-Methyl-4-(4-[1,2,3]triazol-1-yl-butyl)-phenoxymethyl]-6-(4-trifluoromethoxy-phenyl)-pyridine] | 1000 to 5000 nM
23 | FC(F)(F)c1ccc(-c2cncc(COc3ccc(CCCCn4ccnn4)cc3)c2)cc1 [Example 33, 3-[4-(4-[1,2,3]Triazol-1-yl-butyl)-phenoxymethyl]-5-(4-trifluoromethyl-phenyl)-pyridine] | 1000 to 5000 nM
24 | Clc1ccc(-c2cccc(COc3ccc(CCCCn4ccnn4)cc3)n2)cc1 [Example 35, 2-(4-Chloro-phenyl)-6-[4-(4-[1,2,3]triazol-1-yl-butyl)-phenoxymethyl]-pyridine] | 1000 to 5000 nM
25 | Cc1cc(OCc2cncc(-c3ccc(Cl)cc3)c2)ccc1CCCCn1ccnn1 [Example 38, 3-(4-Chloro-phenyl)-5-[3-methyl-4-(4-[1,2,3]triazol-1-yl-butyl)-phenoxymethyl]-pyridine] | 1000 to 5000 nM
26 | Cc1cc(OCc2ccc(-c3ccc(C(F)(F)F)cc3F)nc2C)ccc1CCCCn1ccnn1 [Example 42, 6-(2-Fluoro-4-trifluoromethyl-phenyl)-2-methyl-3-[3-methyl-4-(4-[1,2,3]triazol-1-yl-butyl)-phenoxymethyl]-pyridine] | 5 to 1000 nM
27 | Cc1nc(-c2ccc(C(F)(F)F)cc2F)ccc1COc1ccc(CCCCn2ccnn2)cc1 [Example 43, 6-(2-Fluoro-4-trifluoromethyl-phenyl)-2-methyl-3-[4-(4-[1,2,3]triazol-1-yl-butyl)-phenoxymethyl]-pyridine] | 1000 to 5000 nM
